Assay results published in patent publication US20250177354A1, “THERAPEUTIC COMBINATIONS, COMPOSITIONS, AND METHODS FOR DESIGNING AND PRODUCING EN[…]” (Mindstate Design Labs, Inc., priority 2022, published 2025).
“Also recorded” adds a separate entry of the source.

Experiments:
I1 Imidazoline Sites = conditions: cited from earlier work; for Selectivity Ratio: I1 relative to α2 (α2 value / I1 value)
α2-adrenergic receptor = conditions: cited from earlier work
I1 = conditions: cited from earlier work
subjects [1] = conditions: cited from earlier work
subjects [2] = conditions: subjects administered MDMA; cited from earlier work
[3] = cited from earlier work
individual = experiment: Self-administration of combinations and single-compound controls, subjective reports recorded by the individual; type: in vivo, human
Procedure: In several examples of such administration, the combinations as follows were self-administered, with the subjective reports recorded by the individual during and/or following such administration, as below.
The following example was performed for purposes of and is presented as a control.
In an example, the combination as set forth below was self-administered, with the report as follows.
The working example below was performed for purposes of and is presented as a control.
The working examples below were also performed for purposes of and are presented as controls, using an escalating dose of a single primer alone, applicable to this and other Examples.

[4] = control: 4.0 mg 5-MeO-MiPT alone
[5] = control: 8.0 mg 5-MeO-MiPT alone
[6] = control: 10.0 mg 5-MeO-MiPT alone

CC(Oc1c(Cl)cccc1Cl)C1=NCCN1 (centres unmarked) [Lofexidine]
Selectivity Ratio (I1 Imidazoline Sites): 3.63

CC1CNC(Nc2c(Cl)cccc2Cl)=N1 (centres unmarked) [LNP630, (2,6-dichloro-phenyl)-(4-methyl-4,5-dihydro-1H-imidazol-2-yl)-amine]
affinity or activity for the α2-adrenergic receptor (α2-adrenergic receptor): no detectable affinity or activity

Cc1c(Cl)cccc1NC1=NCC(C)C1 (centres unmarked) [LNP599]
affinity or activity for the α2-adrenergic receptor (α2-adrenergic receptor): no detectable affinity or activity | affinity for I1 (I1): nanomolar affinity

CC1CCC(Nc2cc(N=[N+]=[N-])c(I)cc2Cl)=N1 (centres unmarked) [LNP906, 2-(5-azido-2-chloro-4-iodo-phenyl-amino)-5-methyl-pyrroline]
affinity or activity for the α2-adrenergic receptor (α2-adrenergic receptor): no detectable affinity or activity

CNC(C)Cc1ccc2c(c1)OCO2 (racemic) [MDMA, (RS)-1-(1,3-Benzo-dioxol-5-yl)-N-methylpropan-2-amine]
subject-reported sociability (subjects [1]; following administration of MDMA): increases in sociability | brain imaging responses to facial expressions (subjects [1]; subjects administered MDMA): attenuated responses to angry facial expressions and enhanced responses to happy expressions | mental state decoding (mind reading) of social cues (subjects [2]): enhanced mental state decoding of positive stimuli, such as friendliness, and impaired the accuracy of mind reading for negative stimuli | effect on a stutter (case, Shulgin & Shulgin, 1991) ([3]; graduate student): dramatic improvements in a stutter | efficacy in autistic social impairment (systematic review, Chaliha, 2021) ([3]; in vivo): efficacious as a pharmacological treatment

COc1nc(C)nc(Cl)c1NC1=NCCN1 [Moxonidine, 4-Chloro-N-(4,5-dihydro-1H-imidazol-2-yl)-6-methoxy-2-methylpyrimidin-5-amine]
subjective effects (self-report) (individual; control: 0.2 mg Moxonidine alone, 12:30 pm): more focused, probably more centered, less distracted by thinking; also recorded: All very subtle but detectable

CC1CC(NC(C2CC2)C2CC2)=NC1C (centres unmarked) [LNP509, dicyclopropylmethyl-(4,5-dimethyl-4,5-dihydro-3H-pyrrol-2-yl)-amine]
affinity or activity for the α2-adrenergic receptor (α2-adrenergic receptor): no detectable affinity or activity

C1COC(NC(C2CC2)C2CC2)=N1 [Rilmenidine, N-(dicyclopropylmethyl)-4,5-dihydro-1,3-oxazol-2-amine]
subjective effects (self-report) (individual; control: 1.0 mg Rilmenidine alone, 9:00 pm): relaxing, my chest less strained; also recorded: the effect was subtle | Selectivity Ratio (I1 Imidazoline Sites): 29.51 | selectivity for I1 relative to α2 receptors (I1 Imidazoline Sites; I1 relative to α2 receptors): about 30 fold

CC1CCC(Nc2ccc(I)cc2Cl)=N1 (centres unmarked) [LNP911, 2-(2-chloro-4-iodo-phenylamino)-5-methyl-pyrroline]
affinity or activity for the α2-adrenergic receptor (α2-adrenergic receptor): no detectable affinity or activity

COc1ccc2[nH]cc(CCN(C)C(C)C)c2c1 [Example 5-MeO-MiPT, N-isopropyl-5-methoxy-N-methyltryptamine]
physical discomfort (self-report) (individual; [4]): my brain was so heavy and tired | subjective effects (self-report) (individual; [4]): My emotion is quite neutral, not much different from the normal state | subjective effects (self-report) (individual; control: 6.0 mg 5-MeO-MiPT alone): generally emotionally neutral | physical discomfort (self-report) (individual; [5]): my body was uncoordinated, and I trembled a lot | subjective effects (self-report) (individual; [5]): There was no emergence of a stable mental state; also recorded: There was not much feeling | physical discomfort (self-report) (individual; [6]): My stomach was so upset that I had to vomit | subjective effects (self-report) (individual; [6]): void of emotion and mental activities
